# In publication PMC5323433 (The pharmacogenomics journal, 2016):
# Experiments:
# [1] = Steady-state plasma exemestane concentration two hours after dosing; assay type: in vivo, human; conditions: for Relative % change per variant allele (95% CI): additive model
# [2] = cited from earlier work
# breast cancer = conditions: letrozole compared to placebo in 352 minority patients, p=0.53; cited from earlier work
# [3] = CYP3A4*22 rs35599367, oral 25 mg/day, 2 h post-dose
structure (smiles),measurement,setting,value
C=C1C[C@@H]2[C@H](CC[C@]3(C)C(=O)CC[C@@H]23)[C@@]2(C)C=CC(=O)C=C12 [exemestane],Median Exemestane Concentration,"[1]; 1st Tertile (CrCl > 108.5 mL/min), 2 h post-dose",5.9 ng/mL
same,Relative % Change Compared with Reference (95% Confidence Interval),[1]; 2nd CrCl tertile vs 1st tertile (reference),+42.9% (8.3%–88.5%)
same,Median Exemestane Concentration,"[1]; 2nd Tertile (83.0 < CrCl ≤ 108.5), 2 h post-dose",8.6 ng/mL
same,Relative % Change Compared with Reference (95% Confidence Interval),[1]; 3rd CrCl tertile vs 1st tertile (reference),+51.1% (14.5%–99.5%)
same,Median Exemestane Concentration,"[1]; 3rd Tertile (CrCl ≤ 83.0 mL/min), 2 h post-dose",8.0 ng/mL
same,Relative % change per variant allele (95% CI),[1]; AKR1C4 Leu311Val rs17134592,"−8% (−25%, 13%)"
same,Relative % change per variant allele (95% CI),[1]; AKR7A2 A142T rs1043657,"−1% (−22%, 26%)"
same,Relative % Change (95% Confidence Interval),"[1]; Age, per year increase","+0.8% (−0.4%, 2%)"
same,Relative % Change (95% Confidence Interval),"[1]; BMI, per unit increase","−1.5% (−3%, 0%)"
same,Relative % Change Compared with Reference (95% Confidence Interval),[1]; Black vs White (reference),−32.2% (−52.1%–−4.0%)
same,Relative % change per variant allele (95% CI),[1]; CYP1A1 15:74724835 rs2606345,"0% (−13%, 15%)"
same,Relative % change per variant allele (95% CI),[1]; CYP1A1*2 rs4646903,"+16% (−7%, 46%)"
same,Relative % change per variant allele (95% CI),[1]; CYP1B1 2:38080367 rs162555,"6% (−11%, 26%)"
same,Relative % change per variant allele (95% CI),[1]; CYP1B1 Ala119Ser rs1056827,"−1% (−15%, 16%)"
same,Relative % change per variant allele (95% CI),[1]; CYP1B1 Arg48Gly rs10012,"−4% (−18%, 12%)"
same,Relative % change per variant allele (95% CI),[1]; CYP3A4*1G rs2242480,"−4% (−20%, 15%)"
same,"Median Concentration (range), Heterozygous",[1]; [3],10.7 (2.8 – 72.0) ng/mL
same,"Median Concentration (range), Homozygous Wild-type",[1]; [3],7.7 (2.5 – 42.2) ng/mL
same,Relative % change per variant allele (95% CI),[1]; CYP4A11 −845A/G rs9332978,"+14% (−15%, 51%)"
same,Patients with concentration <LLOQ,"[1]; LLOQ 2.5 ng/mL, 26 of 246 patients",10.6%
same,Median Exemestane Concentration,"[1]; Sample Collection Time 1 month, 2 h post-dose",6.0 ng/mL
same,Median Exemestane Concentration,"[1]; Sample Collection Time 3 month, 2 h post-dose",8.0 ng/mL
same,Relative % Change Compared with Reference (95% Confidence Interval),[1]; elevated aminotransferases Yes vs No (reference),"+42.9% (0.6%, 103%)"
same,Decrease in exemestane concentration per unit increase in BMI,[1]; per unit increase in BMI,1.5%
same,Greater exemestane exposure in patients with hepatic impairment,[2]; hepatic impairment based on Child-Pugh grade,2–3 fold
same,Greater exemestane exposure in patients with renal impairment,[2]; renal impairment,2–3 fold
N#Cc1ccc(C(c2ccc(C#N)cc2)n2cncn2)cc1 [letrozole],Disease free survival hazard ratio,breast cancer,1.39
